Measurements as given in ChEMBL document CHEMBL6177981, “Bardoxolone Derivatives as Novel Pseudo-Natural Necroptosis Inhibitors by Destabilizing HSP90 Client Proteins” (J Med Chem, 2025).
Activity calls are given as the source filed them. The rule behind the calls is not given here.

Legend:
L929 [1] = experiment: Anti-necroptotic activity in TZ-induced mouse L929 cells assessed as increase in cell viability preincubated with Z-VAD-FMK followed by mTNFalpha stimulation for 4 hrs and measured after compound addition by CellTiter-Lumi luminescent cell viability assay; format: functional, cell-based
HT-29 = experiment: Anti-necroptotic activity in TSZ-induced human HT-29 cells assessed as increase in cell viability preincubated with Z-VAD-FMK and SM164 for 30 mins followed by TNFalpha stimulation for 12 hrs and measured after compound addition by CellTiter-Lumi luminescent cell viability assay; format: functional, cell-based
L929 [2] = experiment: Anti-necroptotic activity in TZ-induced mouse L929 cells assessed as protection against cell death at 10 uM measured within 5 hrs by Live-cell super-resolution panoramic microscopic analysis; format: functional, cell-based
[3] = target: Heat shock protein HSP90 (Homo sapiens) (UniProt P07900+P08238); experiment: Inhibition of HSP90 in TSZ-induced human HT-29 cells assessed as reduction in EGFR protein level at 10 uM preincubated with compound followed by Z-VAD-FMK, SM164 and TNFalpha stimulation and measured after 6 hrs by Western blot analysis; format: cell-based
[4] = target: T1, Receptor-interacting serine/threonine-protein kinase 1 (Homo sapiens) (UniProt Q13546); experiment: Inhibition of RIPK1 phosphorylation at S166 residue in TSZ-induced human HT-29 cells at 10 uM preincubated with compound followed by Z-VAD-FMK, SM164 and TNFalpha stimulation and measured after 6 hrs by Western blot analysis; format: cell-based
T1 sequence (whole entry): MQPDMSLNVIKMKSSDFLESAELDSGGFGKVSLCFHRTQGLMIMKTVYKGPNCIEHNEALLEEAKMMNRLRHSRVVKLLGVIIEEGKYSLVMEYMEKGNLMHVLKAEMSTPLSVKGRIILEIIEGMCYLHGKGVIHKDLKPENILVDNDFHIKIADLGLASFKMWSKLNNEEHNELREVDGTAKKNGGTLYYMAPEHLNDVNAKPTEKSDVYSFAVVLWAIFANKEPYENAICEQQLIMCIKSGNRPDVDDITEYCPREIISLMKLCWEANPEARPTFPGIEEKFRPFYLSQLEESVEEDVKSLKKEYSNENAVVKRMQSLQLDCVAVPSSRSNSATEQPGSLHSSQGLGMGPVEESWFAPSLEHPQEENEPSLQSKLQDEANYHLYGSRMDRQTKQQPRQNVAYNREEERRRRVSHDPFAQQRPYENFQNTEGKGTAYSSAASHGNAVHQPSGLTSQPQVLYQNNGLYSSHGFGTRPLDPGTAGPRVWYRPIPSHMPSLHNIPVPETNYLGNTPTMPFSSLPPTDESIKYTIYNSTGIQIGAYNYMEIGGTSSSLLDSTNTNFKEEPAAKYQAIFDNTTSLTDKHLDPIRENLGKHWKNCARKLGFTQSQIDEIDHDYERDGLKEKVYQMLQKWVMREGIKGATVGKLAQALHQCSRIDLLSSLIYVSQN

[5] = target: Receptor-interacting serine/threonine-protein kinase 3 (Homo sapiens) (UniProt Q9Y572); experiment: Inhibition of RIPK3 phosphorylation at S227 residue in TSZ-induced human HT-29 cells at 10 uM preincubated with compound followed by Z-VAD-FMK, SM164 and TNFalpha stimulation and measured after 6 hrs by Western blot analysis; format: cell-based
Sequence of Receptor-interacting serine/threonine-protein kinase 3 (Homo sapiens) (Q9Y572 whole entry, looked up, the tested form may be a part): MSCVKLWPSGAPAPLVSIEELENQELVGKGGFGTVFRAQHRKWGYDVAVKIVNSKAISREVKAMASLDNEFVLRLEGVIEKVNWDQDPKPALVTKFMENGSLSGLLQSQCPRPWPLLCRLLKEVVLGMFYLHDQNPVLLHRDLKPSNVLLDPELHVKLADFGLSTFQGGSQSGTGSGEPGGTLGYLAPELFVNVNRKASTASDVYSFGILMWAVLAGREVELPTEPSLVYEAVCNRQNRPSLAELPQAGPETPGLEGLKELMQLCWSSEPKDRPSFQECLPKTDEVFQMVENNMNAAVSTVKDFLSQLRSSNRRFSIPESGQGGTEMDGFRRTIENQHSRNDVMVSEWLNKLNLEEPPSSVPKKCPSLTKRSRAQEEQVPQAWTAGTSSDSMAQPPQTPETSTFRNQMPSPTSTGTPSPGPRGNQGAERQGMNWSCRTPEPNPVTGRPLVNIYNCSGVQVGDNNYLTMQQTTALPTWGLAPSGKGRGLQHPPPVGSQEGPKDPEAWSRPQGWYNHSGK

[6] = target: T2, Mixed lineage kinase domain-like protein (Homo sapiens) (UniProt Q8NB16); experiment: Inhibition of MLKL phosphorylation at S358 residue in TSZ-induced human HT-29 cells at 10 uM preincubated with compound followed by Z-VAD-FMK, SM164 and TNFalpha stimulation and measured after 6 hrs by Western blot analysis; format: cell-based
T2 sequence (whole entry): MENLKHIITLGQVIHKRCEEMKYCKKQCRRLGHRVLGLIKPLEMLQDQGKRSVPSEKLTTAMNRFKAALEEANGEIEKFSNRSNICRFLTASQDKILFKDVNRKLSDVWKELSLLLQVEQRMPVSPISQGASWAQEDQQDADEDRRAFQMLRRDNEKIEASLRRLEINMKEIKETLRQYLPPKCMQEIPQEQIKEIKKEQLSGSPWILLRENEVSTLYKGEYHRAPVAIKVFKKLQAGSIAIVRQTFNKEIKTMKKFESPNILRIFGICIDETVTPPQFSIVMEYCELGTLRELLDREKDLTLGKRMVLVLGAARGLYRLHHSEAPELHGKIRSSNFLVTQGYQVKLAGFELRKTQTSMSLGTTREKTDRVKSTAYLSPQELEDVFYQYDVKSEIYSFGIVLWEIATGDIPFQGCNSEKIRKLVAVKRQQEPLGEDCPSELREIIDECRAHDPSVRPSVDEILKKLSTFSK

RAW264.7 = experiment: Anti-necroptotic activity in LZ-induced mouse RAW264.7 cells assessed as increase in cell viability preincubated with compound followed by LPS and Z-VAD-FMK stimulation and measured after 16 hrs by CellTiter-Lumi luminescent cell viability assay; format: functional, cell-based

Row | Structure (SMILES) | EC50 (L929 [1]) [µM] | EC50 (HT-29) [µM] | also measured
1 | CC1(C)CC[C@]2(C(=O)Nc3ccc4sncc4c3)CC[C@]3(C)[C@H](C(=O)C=C4[C@@]5(C)C=C(C#N)C(=O)C(C)(C)[C@@H]5CC[C@]43C)[C@@H]2C1 | > 10 | 2.35 | –
2 | CC1(C)CC[C@]2(C(=O)Nc3ccc4c(c3)OCO4)CC[C@]3(C)[C@H](C(=O)C=C4[C@@]5(C)C=C(C#N)C(=O)C(C)(C)[C@@H]5CC[C@]43C)[C@@H]2C1 | > 10 | 0.89 | –
3 | CC1(C)CC[C@]2(C(=O)Nc3ccc4occc4c3)CC[C@]3(C)[C@H](C(=O)C=C4[C@@]5(C)C=C(C#N)C(=O)C(C)(C)[C@@H]5CC[C@]43C)[C@@H]2C1 | > 10 | 1.32 | –
4 | CC1(C)CC[C@]2(C(=O)n3nnc4ccccc43)CC[C@]3(C)[C@H](C(=O)C=C4[C@@]5(C)C=C(C#N)C(=O)C(C)(C)[C@@H]5CC[C@]43C)[C@@H]2C1 | > 10 | 9.98 | –
5 | CC1(C)CC[C@]2(C(=O)Nc3ccc4oncc4c3)CC[C@]3(C)[C@H](C(=O)C=C4[C@@]5(C)C=C(C#N)C(=O)C(C)(C)[C@@H]5CC[C@]43C)[C@@H]2C1 | > 10 | 3.28 | –
6 | CC1(C)CC[C@]2(C(=O)Nc3ccc4[nH]ccc4c3)CC[C@]3(C)[C@H](C(=O)C=C4[C@@]5(C)C=C(C#N)C(=O)C(C)(C)[C@@H]5CC[C@]43C)[C@@H]2C1 | > 10 | 4.08 | –
7 | CC1(C)CC[C@]2(C(=O)O)CC[C@]3(C)[C@H](C(=O)C=C4[C@@]5(C)C=C(C#N)C(=O)C(C)(C)[C@@H]5CC[C@]43C)[C@@H]2C1 [BARDOXOLONE] | > 10 | 2.52 | Activity (L929 [2]): inactive; inhibition [3]: Active; inhibition [4]: inactive; inhibition [5]: inactive; inhibition [6]: inactive
8 | CC1(C)CC[C@]2(C(=O)Nc3ccc4ncsc4c3)CC[C@]3(C)[C@H](C(=O)C=C4[C@@]5(C)C=C(C#N)C(=O)C(C)(C)[C@@H]5CC[C@]43C)[C@@H]2C1 | > 10 | 3.56 | –
9 | CC1(C)CC[C@]2(C(=O)O)CC[C@]3(C)C(=CC[C@@H]4[C@@]5(C)CC[C@H](O)C(C)(C)[C@@H]5CC[C@]43C)[C@@H]2C1 [OLEANOLIC_ACID] | > 10 | > 10 | –
10 | CC1(C)CC[C@]2(C(=O)n3ncc4ccccc43)CC[C@]3(C)[C@H](C(=O)C=C4[C@@]5(C)C=C(C#N)C(=O)C(C)(C)[C@@H]5CC[C@]43C)[C@@H]2C1 | > 10 | > 10 | –
11 | CC1(C)CC[C@]2(C(=O)Nc3nc4ccccc4s3)CC[C@]3(C)[C@H](C(=O)C=C4[C@@]5(C)C=C(C#N)C(=O)C(C)(C)[C@@H]5CC[C@]43C)[C@@H]2C1 | > 10 | 3.8 | –
12 | CC1(C)CC[C@]2(C(=O)Nc3ccc4ccccc4c3)CC[C@]3(C)[C@H](C(=O)C=C4[C@@]5(C)C=C(C#N)C(=O)C(C)(C)[C@@H]5CC[C@]43C)[C@@H]2C1 | > 10 | 9.56 | –
13 | CC1(C)CC[C@]2(C(=O)Nc3ccc4sccc4c3)CC[C@]3(C)[C@H](C(=O)C=C4[C@@]5(C)C=C(C#N)C(=O)C(C)(C)[C@@H]5CC[C@]43C)[C@@H]2C1 | > 10 | 4.85 | –
14 | CC1(C)CC[C@]2(C(=O)NC3(c4ccccc4)CC3)CC[C@]3(C)[C@H](C(=O)C=C4[C@@]5(C)C=C(C#N)C(=O)C(C)(C)[C@@H]5CC[C@]43C)[C@@H]2C1 | 4.8 | 2.09 | Activity (RAW264.7): Dose-dependent-effect
